Peptide text beside a SMILES is read from it.
Columns and labels:
[1] = system: wild-type (WT) isolated female gonads; assay: Gonad spawning assay, wild-type isolated gonads; design: species or system Clytia hemisphaerica
Method: We performed a series of oocyte maturation and spawning assays, comparing the responses of wild-type and MIHR mutant isolated gonads and oocytes to different stimuli (Fig 4).
Sexually mature MIHR mutant medusae from colonies n5-13 and n5-23 and wild-type medusae were cultured on the same day–night cycle. Individual gonads were dissected in the evening after afternoon spawning. To test the light response, one group of each was transferred to 100 μL MFSW in wells of 96-well plastic plates, covered overnight, and re-exposed to white light the following day. To test responses to MIH and cAMP, other groups of dissected gonads were cultured overnight in constant light, then transferred to 96-well plastic plates for two hours. MIH was added to wells as an equal volume of 200 nM WPRPamide (GenScript) stock in MFSW was added to give a final concentration of 100 nM. Alternatively, a stock of 20 mM bromo adenosine 3′,5′cyclic monophosphate (Br-cAMP–Fluka; Sigma Aldrich) in distilled water was added to give a final concentration of 4 mM. Gonads were washed after 5 minutes incubation in Br-cAMP. Oocyte maturation was scored after 30 minutes as germinal vesicle breakdown (GVBD), i.e., visible dissolution of the oocyte nuclear membrane upon entry into M phase, which in all cases was followed by spawning about 1 hour later.
Supplementary file pbio.3000614.s013.xlsx: S3 Data Numerical data corresponding to Fig 4A and 4C. The first tab collects all the raw data from 3 independent gonad spawning assays. Information corresponding to the Fisher exact tests is also shown. […] The means and standard deviations were used to prepare the graph in Fig 4C. Information corresponding to the Fisher exact tests is also shown. (XLSX) Click here for additional data file.

Clytia MIHR [2] = assay: GPCR deorphanization assay, luminescence response to peptides at 1 μM (CHO-K1 cells, Gα-16, GFP-apoaequorin); format: cell-based, Clytia hemisphaerica; details: peptide 1E-6M, normalised to Platynereis FLamide receptor + 1 μM AKYFL-NH2, n = 3
Description: We used a cell culture–based GPCR deorphanization assay to identify the MIH receptor from our candidate shortlist. cDNAs for each candidate were transfected into Chinese Hamster ovary K1 (CHO-K1) cells along with the promiscuous Gα protein Gα-16, and an aequorin-GFP luminescence reporter that measures Ca^2+ mobilization downstream of this heterologous Gα protein [27, 28]. We first screened the 16 candidate Clytia GPCRs against a mixture of 33 synthetic amidated peptides (including MIHs) predicted to be generated from previously identified putative Clytia neuropeptide precursors and one additional one identified from transcriptome data. Given our imperfect knowledge of pro-peptide processing in cnidarians, some of the synthetic peptides may not correspond to endogenous peptides. Only one of the 16 GPCRs was activated by this peptide mixture. This receptor responded well to all 4 synthetic Clytia MIH tetrapeptides, as well as to related Cladonema MIH peptides that can also activate Clytia oocyte maturation, but not to other Clytia peptide mixtures or poorly active MIH penta-/tripeptides. We termed this Clytia GPCR the Maturation Inducing Hormone Receptor (MIHR). The activity of individual peptides at 1 μM to stimulate the MIHR closely matched their in vivo ability to induce oocyte maturation (Fig 1B).
(§1) Cell culture GPCR ligand response assays were performed as described. Briefly, CHO-K1 cells were cultured in Ham’s F12 Nut Mix medium (Thermo Fisher Scientific) with 10% foetal bovine serum. Cells were seeded in 96-well plates at approximately 10,000 cells/well and transfected the following day with pcDNA3.1(+) plasmids encoding each of the 16 candidate Clytia GPCRs (S2 Text), the promiscuous Gα-16 protein [65], and a reporter construct GFP-apoaequorin [66] (60 ng each) using the transfection reagent TurboFect (Thermo Fisher Scientific). After 2 days of expression, the medium was removed and replaced with Hank’s balanced salt solution (HBSS) supplemented with 1.8 mM Ca2+, 10 mM glucose, and […] coelenterazine h (Promega, Madison, WI). After incubation at 37 °C for 2 hours, cells were tested by adding synthetic peptides (GenScript) in HBSS supplemented with 1.8 mM Ca2^+ and 10 mM glucose. A list of all synthetic peptides used is provided in S2 Table. Luminescence was recorded for 45 seconds in a plate reader (BioTek Synergy Mx or Synergy H4; BioTek, Winooski, VT). Data were integrated over the 45-second measurement period and recorded as technical triplicates in each case. Data were normalized using the response of Platynereis FLamide receptor to 1 μM AKYFL-NH2 [28]. Dose–response curves were obtained using concentrations between 0.01 nM and 100 μM for each peptide. Data for dose–response curves were recorded in triplicate for each concentration and the experiment was repeated independently 3 times. Dose–response curves were fitted with a four-parameter curve using Prism 6 (GraphPad, La Jolla, CA) and were normalized to the calculated upper plateau values (100% activation).
Supplementary file pbio.3000614.s011.xlsx: S1 Data Numerical data corresponding to Fig 1B. Raw luminescence values obtained in triplicate for each of the neuropeptide combinations tested against the MIHR in the deorphanization assay are provided. In the right-hand table, the raw luminescence values obtained in quadruple for the positive and negative controls are provided. In the lower table, means and standard errors of the mean of the luminescence values obtained for each neuropeptide combination and controls are also shown, as well as the values normalized to the positive control, which were used to prepare the graph shown in Fig 1B. MIHR, MIH receptor. (XLSX) Click here for additional data file.

Clytia MIHR [3] = assay: Dose–response curves of Clytia MIHR, luminescence (CHO-K1 cells, Gα-16, GFP-apoaequorin); format: cell-based, Clytia hemisphaerica; design: key to Span (best-fit value) / Bottom (best-fit value): % activation, normalized to fitted upper plateau (100%); details: for EC50: four-parameter fit, variable slope, triplicate; for HillSlope / LogEC50: best-fit value; for Bottom / Span / Top: best-fit value (luminescence)
Method: The Clytia MIH amidated peptides are produced from two precursor genes Che-pp4 (generating multiple copies of WPRAamide, WPRYamide, and WPRPamide) and Che-pp1 (multiple copies of WPRPamide and RPRGamide).
as §1
Supplementary file pbio.3000614.s012.xlsx: S2 Data Numerical data corresponding to Fig 1C. The first three tabs show statistical values obtained using Prism 6 software (GraphPad, La Jolla, CA) from the raw luminescence values for 3 independent dose–response experiments. The raw luminescence values are shown, as well as the values normalized with respect to the maximum. […] MIH, maturation-inducing hormone. (XLSX) Click here for additional data file.

[4] = 0,1uM WPRPa, wild type, replicate 1, total 22
[5] = 0,1uM WPRPa, wild type, replicate 2, total 24
[6] = 0,1uM WPRPa, wild type, replicate 3, total 18
[7] = WPRPa, pooled n=64, Fisher exact test vs MIHR KO significant at p < .01
[8] = log(agonist) vs. response, variable slope (four parameters), fit of third dataset

Structure (SMILES): N=C(N)NCCC[C@H](NC(=O)[C@@H]1CCCN1C(=O)[C@@H](N)Cc1c[nH]c2ccccc12)C(=O)N1CCC[C@H]1C(N)=O [WPRPa] (H-WPRP-NH2; N-terminus assumed)
- Percentage of spawning gonads, Mean ([1]; 0,1uM WPRPa, wild type, mean of 3 replicates, Desvest 7.87296): 95.4545
- Gonads spawning (number) [1, 4]: 19
- Percentage of spawning gonads [1, 4]: 86.3636
- Gonads spawning (number) [1, 5]: 24
- Percentage of spawning gonads [1, 5]: 100
- Gonads spawning (number) [1, 6]: 18
- Percentage of spawning gonads [1, 6]: 100
- Non-spawning gonads, WT NO [1, 7]: 3
- Spawning gonads, WT YES [1, 7]: 61
- oocyte maturation and spawning of WT gonads ([1]; isolated WT gonads, 100 nM WPRPamide): underwent oocyte maturation and spawning
- Normalised response (to positive control), mean (Clytia MIHR [2]): 0.381
- EC50 (Clytia MIHR [3]; dataset/experiment 1): 220 nM
- EC50 (Clytia MIHR [3]; dataset/experiment 2): 928 nM
- HillSlope (Clytia MIHR [3]; first dataset): 1.128
- LogEC50 (Clytia MIHR [3]; first dataset): -6.658
- Bottom (Clytia MIHR [3]; first dataset): 935
- Span (Clytia MIHR [3]; first dataset): 46105
- Top (Clytia MIHR [3]; first dataset): 47040
- Bottom (best-fit value) (Clytia MIHR [3]; [8]): 10.51
- HillSlope (best-fit value) (Clytia MIHR [3]; [8]): 1.078
- LogEC50 (best-fit value) (Clytia MIHR [3]; [8]): -6.286
- Span (best-fit value) (Clytia MIHR [3]; [8]): 89.49
- HillSlope (Clytia MIHR [3]; second dataset): 0.9926
- LogEC50 (Clytia MIHR [3]; second dataset): -6.033
- Bottom (Clytia MIHR [3]; second dataset): 1493
- Span (Clytia MIHR [3]; second dataset): 22106
- Top (Clytia MIHR [3]; second dataset): 23599

Source: PMC7053711, “A G protein–coupled receptor mediates neuropeptide-induced oocyte maturation in the jellyfish Clytia” (PLoS Biology, 2020)
